In ChEMBL document CHEMBL4616634, “4β-Hydroxywithanolide E from Goldenberry (Whole Fruits of Physalis peruviana L.) as a Promising Agent against Chronic Obstructive Pulmonary Disease” (J Nat Prod, 2020):
Active and inactive are the calls of the source. The rule behind the calls is not given here.

Legend:
[1] = molecular target: T1, Nuclear factor erythroid 2-related factor 2 (Mus musculus) (UniProt Q60795); test: Activation of Nrf2 in mouse Hepa1c1c7 cells assessed as increase in quinone reductase activity at 3.12 uM incubated for 24 hrs by MTT based assay; format: cell-based
T1 sequence (whole entry): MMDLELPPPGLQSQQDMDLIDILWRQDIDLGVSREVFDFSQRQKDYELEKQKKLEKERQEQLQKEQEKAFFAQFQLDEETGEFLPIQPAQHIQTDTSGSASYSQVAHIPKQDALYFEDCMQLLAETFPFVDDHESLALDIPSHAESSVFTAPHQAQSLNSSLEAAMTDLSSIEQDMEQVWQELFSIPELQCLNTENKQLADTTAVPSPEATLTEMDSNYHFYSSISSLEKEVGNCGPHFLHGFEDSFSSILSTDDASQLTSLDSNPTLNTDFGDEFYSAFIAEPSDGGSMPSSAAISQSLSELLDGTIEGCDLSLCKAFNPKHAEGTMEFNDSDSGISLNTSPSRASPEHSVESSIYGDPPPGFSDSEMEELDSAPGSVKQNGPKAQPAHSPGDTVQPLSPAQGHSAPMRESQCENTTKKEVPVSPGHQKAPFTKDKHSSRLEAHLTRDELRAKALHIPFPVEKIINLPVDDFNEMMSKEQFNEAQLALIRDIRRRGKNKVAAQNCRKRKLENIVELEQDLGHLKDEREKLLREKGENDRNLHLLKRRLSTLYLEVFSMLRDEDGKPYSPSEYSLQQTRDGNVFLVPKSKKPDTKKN

BEAS-2B = test: Cytotoxicity against human BEAS2B cells assessed as decrease in cell viability at < 12.5 uM after 24 hrs by MTT assay; format: cell-based
[2] = molecular target: T2, Nuclear factor erythroid 2-related factor 2 (Homo sapiens) (UniProt Q16236); test: Activation of Nrf2 in human BEAS2B cells assessed as increase in NQO1 protein expression incubated for 12 hrs by immunoblot analysis; format: cell-based
T2 sequence (whole entry): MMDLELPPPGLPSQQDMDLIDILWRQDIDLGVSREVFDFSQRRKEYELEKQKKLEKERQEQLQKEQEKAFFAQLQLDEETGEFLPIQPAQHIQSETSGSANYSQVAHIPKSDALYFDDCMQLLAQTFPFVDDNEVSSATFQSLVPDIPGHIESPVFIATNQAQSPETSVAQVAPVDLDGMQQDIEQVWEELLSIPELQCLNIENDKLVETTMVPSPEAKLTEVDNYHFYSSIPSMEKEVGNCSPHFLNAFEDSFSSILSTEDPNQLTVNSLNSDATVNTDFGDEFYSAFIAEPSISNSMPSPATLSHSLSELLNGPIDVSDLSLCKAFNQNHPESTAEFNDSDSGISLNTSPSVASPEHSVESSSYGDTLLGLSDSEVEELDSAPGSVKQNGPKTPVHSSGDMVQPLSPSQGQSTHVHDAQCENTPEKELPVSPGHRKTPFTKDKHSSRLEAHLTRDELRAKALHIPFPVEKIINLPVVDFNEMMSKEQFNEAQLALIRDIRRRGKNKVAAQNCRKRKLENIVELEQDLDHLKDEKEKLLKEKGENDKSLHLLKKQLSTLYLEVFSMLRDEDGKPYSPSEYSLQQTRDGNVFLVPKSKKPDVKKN

[3] = molecular target: T2, Nuclear factor erythroid 2-related factor 2 (Homo sapiens); test: Activation of Nrf2 in human BEAS2B cells assessed as increase in Nrf2 mRNA expression at 0.5 to 2 uM incubated for 24 hrs by qRT-PCR analysis; format: cell-based
[4] = molecular target: T2, Nuclear factor erythroid 2-related factor 2 (Homo sapiens); test: Activation of Nrf2 in human BEAS2B cells assessed as increase in GCLM mRNA expression at 0.5 to 2 uM incubated for 24 hrs by qRT-PCR analysis; format: cell-based
[5] = molecular target: T2, Nuclear factor erythroid 2-related factor 2 (Homo sapiens); test: Activation of Nrf2 in human BEAS2B cells assessed as increase in Nrf2 translocation in nucleus at 1 uM incubated for 6 hrs by DAPI staining based fluorescence microscopic analysis; format: cell-based
[6] = molecular target: T2, Nuclear factor erythroid 2-related factor 2 (Homo sapiens); test: Activation of Nrf2 in human BEAS2B cells assessed as increase in Keap1 protein expression at 5 uM incubated for 24 hrs by immunoblot analysis; format: cell-based
[7] = molecular target: Keap1/Nrf2 (Homo sapiens) (UniProt Q16236+Q14145); test: Inhibition of Nrf2-KEAP1 (unknown origin) transfected in BEAS2B cells assessed as decrease in ratio of Nrf2 to Keap1 at 5 uM incubated for 24 hrs by immunoblot analysis; format: cell-based
[8] = molecular target: T2, Nuclear factor erythroid 2-related factor 2 (Homo sapiens); test: Activation of Nrf2 in human BEAS2B cells harboring wild type Keap1 assessed as increase in Nrf2 protein expression at 2 uM after12 hrs in presence of Keap1-siRNA by immunoblot analysis; format: cell-based
[9] = molecular target: T2, Nuclear factor erythroid 2-related factor 2 (Homo sapiens); test: Activation of Nrf2 in human BEAS2B cells harboring Keap1-C288S mutant assessed as increase in Nrf2 protein expression at 2.5 uM after12 hrs in presence of Keap1-siRNA by immunoblot analysis; format: cell-based
Danio rerio = species on record: Danio rerio; test: Inhibition of LPS-induced ROS generation in AB zebra fish oxidative damage model incubated for 24 hrs by DCFH-DA staining based fluorescence assay; format: functional, organism-based
[10] = molecular target: Transcription factor p65 (Mus musculus) (UniProt Q04207); test: Inhibition of LPS-induced NFkappaB p65 nucleus translocation in mouse RAW264.7 cells at 2 uM pre-incubated for 1 hr followed by LPS-stimulation and measured after 1 hr by immunoblot analysis; format: cell-based
RAW264.7 [11] = test: Inhibition of LPS-induced NFkappaB activation in mouse RAW264.7 cells assessed as increase in IKBalpha protein expression at 0.5 to 4 uM pre-incubated for 1 hr followed by LPS-stimulation and measured after 2 hrs by immunoblot analysis; format: cell-based
RAW264.7 [12] = test: Inhibition of LPS-induced COX2 protein expression in mouse RAW264.7 cells at 0.5 to 4 uM preincubated for 1 hr followed by LPS-stimulation and measured after 16 hrs by immunoblot analysis; format: functional, cell-based
RAW264.7 [13] = test: Inhibition of LPS-induced iNOS mRNA expression in mouse RAW264.7 cells at 0.5 to 4 uM preincubated for 1 hr followed by LPS-stimulation and measured after 6 hrs by qRT-PCR analysis; format: functional, cell-based
RAW264.7 [14] = test: Inhibition of LPS-induced COX2 mRNA expression in mouse RAW264.7 cells at 0.5 to 4 uM preincubated for 1 hr followed by LPS-stimulation and measured after 6 hrs by qRT-PCR analysis; format: functional, cell-based
RAW264.7 [15] = test: Inhibition of LPS-induced IL-1beta mRNA expression in mouse RAW264.7 cells at 0.5 to 4 uM preincubated for 1 hr followed by LPS-stimulation and measured after 6 hrs by qRT-PCR analysis; format: functional, cell-based
Mus musculus [16] = test: Antiinflammatory activity in C57BL/6 mouse model of CS-induced pulmonary injury assessed as reduction in hyperplasia of pneumo-cytes in lungs at 2 to 4 mg/kg, ip for 5 days by hematoxylin and eosin staining based fluorescence microscopic analysis; format: functional, organism-based
Mus musculus [17] = test: Antioxidant Activity in C57BL/6 mouse model of CS-induced pulmonary injury assessed as increase in SOD level in serum at 2 to 4 mg/kg, ip for 5 days; format: functional, organism-based

Sequence of Transcription factor p65 (Mus musculus) (Q04207 whole entry): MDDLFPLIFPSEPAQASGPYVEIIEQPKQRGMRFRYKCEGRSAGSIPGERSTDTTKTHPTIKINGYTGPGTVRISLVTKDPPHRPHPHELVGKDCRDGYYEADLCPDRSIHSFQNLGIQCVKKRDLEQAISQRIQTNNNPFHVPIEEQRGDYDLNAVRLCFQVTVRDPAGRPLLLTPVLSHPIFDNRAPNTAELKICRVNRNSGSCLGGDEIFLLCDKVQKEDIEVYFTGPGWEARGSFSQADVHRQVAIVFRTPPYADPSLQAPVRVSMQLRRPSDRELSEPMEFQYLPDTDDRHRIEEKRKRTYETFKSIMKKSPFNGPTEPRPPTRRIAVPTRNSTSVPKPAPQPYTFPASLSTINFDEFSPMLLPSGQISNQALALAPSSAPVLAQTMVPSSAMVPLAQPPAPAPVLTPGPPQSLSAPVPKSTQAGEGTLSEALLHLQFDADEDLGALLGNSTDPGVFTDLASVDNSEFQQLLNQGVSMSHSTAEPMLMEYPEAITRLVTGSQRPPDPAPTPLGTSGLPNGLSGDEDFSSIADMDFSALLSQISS
Sequence of Keap1/Nrf2 (Homo sapiens) (Q14145 whole entry, looked up, one chain of several): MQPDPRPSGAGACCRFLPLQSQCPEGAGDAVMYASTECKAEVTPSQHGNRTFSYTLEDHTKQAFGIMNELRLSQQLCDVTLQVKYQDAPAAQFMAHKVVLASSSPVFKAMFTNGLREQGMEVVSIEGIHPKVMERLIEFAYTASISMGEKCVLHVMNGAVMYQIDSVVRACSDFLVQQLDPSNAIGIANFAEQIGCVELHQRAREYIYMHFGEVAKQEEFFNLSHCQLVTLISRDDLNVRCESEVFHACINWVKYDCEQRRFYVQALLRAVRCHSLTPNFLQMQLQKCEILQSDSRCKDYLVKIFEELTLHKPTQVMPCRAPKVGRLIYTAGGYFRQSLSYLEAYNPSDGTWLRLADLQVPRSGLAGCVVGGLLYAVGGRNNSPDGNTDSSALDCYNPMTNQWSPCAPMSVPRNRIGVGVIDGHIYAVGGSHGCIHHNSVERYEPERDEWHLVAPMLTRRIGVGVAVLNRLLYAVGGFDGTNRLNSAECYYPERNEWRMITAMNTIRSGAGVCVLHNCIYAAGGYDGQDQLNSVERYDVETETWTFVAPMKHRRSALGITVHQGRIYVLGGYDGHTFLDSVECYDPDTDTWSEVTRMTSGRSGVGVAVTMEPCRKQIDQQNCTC

## CC1=C(C)C(=O)O[C@H]([C@](C)(O)[C@]2(O)CC[C@@]3(O)[C@@H]4C[C@H]5O[C@]56[C@@H](O)C=CC(=O)[C@]6(C)[C@H]4CC[C@]23C)C1
[1]
  fold change (FC): 2.58
BEAS-2B
  Activity: Non-Toxic
[2]
  Activity: Dose-dependent effect
[3]
  Activity: Active
[4]
  Activity: Active
[5]
  Activity: Active
[6]
  Activity: inactive
[7]
  inhibition: Active
[8]
  Activity: Active
[9]
  Activity: inactive
Danio rerio
  inhibition: Dose-dependent effect
[10]
  inhibition: Active
RAW264.7 [11]
  inhibition: Active
RAW264.7 [12]
  inhibition: Active
RAW264.7 [13]
  inhibition: Active
RAW264.7 [14]
  inhibition: Active
RAW264.7 [15]
  inhibition: Active
Mus musculus [16]
  Activity: Active
Mus musculus [17]
  Activity: Active
